Experimental data reported in patent US11780851B2, “LRRK2 inhibitors” (H. Lundbeck A/S, priority 2021, dated 2023).
Where two headings read alike, the source gives them in different places.

How the values were obtained:
[1] = Free fraction in plasma (equilibrium dialysis); assay type: in vitro ADME, male Sprague-Dawley rat; conditions: rat plasma, 1 μM, 5 h at 37° C.
Outline: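 Equilibrium dialysis (12-14 kDa membrane) of male Sprague-Dawley rat or female Gottingen minipig plasma, or rat brain homogenate diluted 1:4, against 100 mM sodium phosphate pH 7.4, compound at 1 μM nominal (≤0.5% DMSO), 5 h at 37 °C. LC/MS-MS quantification; percent free calculated, with dilution factor 4 for brain.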

[2] = test system: pooled donor, cryopreserved hepatocytes; assay: Hepatocyte intrinsic clearance assay; assay type: in vitro ADME, human; conditions: 0.1 μM, 2 h at 37° C., 1×10^6 hepatocytes/mL; * measured on 3 separate occasions, ** on a single occasion
Outline: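 Test compound at 0.1 μM final (0.05% organic) incubated 2 h at 37° C with shaking in supplemented Leibovitz L-15 medium (pH7.4), 1×10^6 hepatocytes/mL final. Samples taken 1–120 min, quenched in acetonitrile, analyzed by LC-MS/MS. CLint derived from slope of % remaining versus time.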

[3] = Rat B/P (brain disposition); assay type: in vivo, male Sprague-Dawley rats; conditions: male, Sprague-Dawley, oral gavage 10 mg/kg, time point 0.5 h
Outline: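 Male Sprague-Dawley rats (n=3, standard body weight) were used to assess brain disposition. Plasma and brain homogenates underwent protein precipitation with acetonitrile containing internal standard, then LC-MS/MS measurement using an optimized method. Compound levels were quantified against matrix-matched calibration standards, and brain Kp was calculated as total brain concentration divided by total plasma concentration.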

[4] = biological target: T1, LRRK2 G2019S (Homo sapiens, UniProt Q5S007, G2019S); assay: LRRK2 G2019S kinase activity assay (LanthaScreen TR-FRET); assay type: biochemical; conditions: 250 pM LRRK2 G2019S, 1.3 mM ATP, 3 h at 30° C.; n≥2 tests
T1 construct: purchased Invitrogen (Life Technologies Corporation)
Outline: (§1)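 TR-FRET measured phosphorylation of fluorescein-ERM LRRKtide by human LRRK2 residues 970–2527, wild-type or G2019S, detected with a terbium anti-phospho-LRRKtide antibody. The 520/495 nm ratio was normalized to uninhibited and inhibitor controls. IC50 came from a Hill fit, log-averaged over independent experiments.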

[5] = biological target: T2, LRRK2 WT (Homo sapiens, UniProt Q5S007); assay: LRRK2 wild-type kinase activity assay (LanthaScreen TR-FRET); assay type: biochemical; conditions: 1 nM LRRK2 WT, 1.3 mM ATP, 3.5 h at 30° C.; n≥2 tests
T2 construct: comprises residue 970 to 2527 of the full length human wild-type LRRK2 kinase; purchased Invitrogen (Life Technologies Corporation)
Outline: as §1

[6] = GSH adduct screening; assay type: in vitro ADME, human; conditions: 1 μM, 3 h at 37° C., HLM 0.5 mg/mL, NADPH, with and without GSH
Procedure: Test compounds (final concentration 1 μM, 0.25% organic) were incubated for 3 h at 37° C. in commercially sourced, pooled donor, human liver microsomes (HLM, final concentration 0.5 mg/mL) with and without addition of glutathione (GSH; final concentration […]). The metabolic reaction was initiated by addition of microsomal solution to the mixture of cofactor NADPH (final concentration 1 mM), test compound and GSH. After 3 h of incubation in a water bath at 37° C., the reaction was stopped by addition of 0.2% formic acid in acetonitrile, followed by mixing and centrifugation (16000 g for 5 minutes). Supernatant was diluted (1:1) with HPLC water then analyzed by liquid chromatography (LC)-quadrupole time-of-flight mass spectrometry (QTOF-MS). Accurate mass MS and MS/MS spectra from samples with GSH and without GSH, respectively, were compared to identify detectable GSH and/or cysteine related adducts.

T2 sequence (Q5S007 970-2527): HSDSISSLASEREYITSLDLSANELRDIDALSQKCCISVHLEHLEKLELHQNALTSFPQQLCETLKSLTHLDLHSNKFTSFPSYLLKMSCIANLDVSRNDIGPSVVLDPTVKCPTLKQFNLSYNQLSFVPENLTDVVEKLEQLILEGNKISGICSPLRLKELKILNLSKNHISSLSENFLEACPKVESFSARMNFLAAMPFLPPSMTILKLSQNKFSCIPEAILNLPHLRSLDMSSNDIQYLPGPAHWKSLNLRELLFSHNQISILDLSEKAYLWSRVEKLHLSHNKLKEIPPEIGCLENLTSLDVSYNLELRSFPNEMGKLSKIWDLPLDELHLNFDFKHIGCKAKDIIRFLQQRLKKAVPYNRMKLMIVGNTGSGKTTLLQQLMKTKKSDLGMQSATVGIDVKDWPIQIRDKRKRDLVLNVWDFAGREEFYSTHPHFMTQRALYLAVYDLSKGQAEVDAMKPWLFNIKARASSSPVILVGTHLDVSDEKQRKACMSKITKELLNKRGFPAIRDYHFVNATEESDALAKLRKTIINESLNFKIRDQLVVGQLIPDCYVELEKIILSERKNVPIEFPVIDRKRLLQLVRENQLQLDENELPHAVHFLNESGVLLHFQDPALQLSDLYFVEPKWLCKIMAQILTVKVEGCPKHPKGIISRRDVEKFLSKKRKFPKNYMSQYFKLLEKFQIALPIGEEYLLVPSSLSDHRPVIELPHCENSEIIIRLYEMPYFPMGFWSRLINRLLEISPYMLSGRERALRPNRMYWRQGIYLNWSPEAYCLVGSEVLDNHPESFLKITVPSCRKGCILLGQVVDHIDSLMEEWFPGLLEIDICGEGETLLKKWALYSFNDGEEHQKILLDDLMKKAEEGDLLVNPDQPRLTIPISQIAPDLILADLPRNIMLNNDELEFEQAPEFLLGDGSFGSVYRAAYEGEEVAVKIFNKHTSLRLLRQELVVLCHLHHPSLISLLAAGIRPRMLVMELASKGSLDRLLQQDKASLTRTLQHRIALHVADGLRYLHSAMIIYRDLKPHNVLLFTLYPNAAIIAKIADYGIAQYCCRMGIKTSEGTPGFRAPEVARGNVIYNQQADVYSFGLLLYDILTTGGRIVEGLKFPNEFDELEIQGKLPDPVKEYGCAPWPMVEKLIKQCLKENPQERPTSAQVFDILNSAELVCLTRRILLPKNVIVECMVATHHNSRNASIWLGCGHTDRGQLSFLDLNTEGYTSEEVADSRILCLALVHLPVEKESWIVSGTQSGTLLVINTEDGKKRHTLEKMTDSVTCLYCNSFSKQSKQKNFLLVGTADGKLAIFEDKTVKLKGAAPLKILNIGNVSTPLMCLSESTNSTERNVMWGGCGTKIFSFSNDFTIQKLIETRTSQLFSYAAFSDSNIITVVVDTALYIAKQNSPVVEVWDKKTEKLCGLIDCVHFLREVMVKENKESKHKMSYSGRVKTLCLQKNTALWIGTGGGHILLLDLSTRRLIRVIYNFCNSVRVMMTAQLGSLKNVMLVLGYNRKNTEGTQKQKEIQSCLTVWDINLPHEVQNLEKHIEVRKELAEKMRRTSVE
T1 sequence (Q5S007 970-2527 G2019S): as the sequence (Q5S007 970-2527) above, with G1050S counted along it

fuplasma (% free) [1]: 24.0 % free
CLint [2]: <4 mL/min/kg
concentration at 0.5 h ([3]; brain, mean ± stdev, n = 3, read-out: Total brain concentration): 1430 ± 134 ng/g
Kp uu at 0.5 h ([3]; brain/plasma, fubrain from brain homogenate): 0.4 ± 0.04
Kp at 0.5 h ([3]; brain/plasma, mean ± stdev, n = 3): 1.28 ± 0.13
concentration at 0.5 h ([3]; plasma, mean ± stdev, n = 3, read-out: Total plasma concentration): 1140 ± 229 ng/mL
IC50 [4]: 3.9 nM
IC50 [5]: 13 nM
Adduct detected in GSH supplemented HLMs [6]: +GSH
SMILES: Cc1c2c(nn1[C@@H]1CCO[C@H](C)C1)OCCCn1nc(Cl)c3cnc(nc31)N2 (single isomer, unassigned) [Example 19]
